Molecules are shown by their SMILES.

The text below walks through data of article PMC9645390, “Amphiphilic stilbene derivatives attenuate the neurotoxicity of soluble Aβ42 oligomers by controlling their interactions with cell membranes” (Chemical Science, 2022).

Data set [1] deals with T1, Aβ plaques in 5xFAD mice brain sections (Homo sapiens, UniProt P05067).
T1 construct: aggregated Aβ species were commonly observed in brain sections from 5xFAD transgenic mice; tissue Jackson Laboratories; host or cells: brain sections of 9-month-old 5xFAD transgenic mice
T1 sequence (P05067 672-713 limits assumed): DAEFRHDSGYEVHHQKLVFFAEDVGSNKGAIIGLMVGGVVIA
Kind of data set: Fluorescence imaging of 5xFAD mouse brain sections, colocalization with Congo Red. The note with it: 9-month-old 5xFAD brain sections; compound 5 μM, Congo red 2.5 μM. On the procedure:
In order to confirm that the compounds can also bind to native Aβ species, brain sections collected from 9-month-old 5xFAD transgenic mice have been employed in the fluorescence imaging studies. […] The brain sections were first incubated with our compounds, followed by Congo Red (CR), which is a well-established fluorescent probe that can bind to Aβ plaques.[34] The treated brain sections were then imaged using fluorescence microscope. […] Immunostaining with the CF594-conjugated HJ 3.4 antibody (CF594-HJ3.4) was also performed to confirm that these six compounds can bind to Aβ species specifically in the brain sections (Fig. 5). Moreover, the log D values of the compounds were also measured by octanol-PBS partition assays.[35]
Fig. 4 Fluorescence microscopy images of 5xFAD mice brain sections co-incubated with amphiphilic compounds (top), Congo red (middle) and merged images (bottom, along with the Parson's correlation coefficients R). Concentrations: [amphiphilic compounds] = 5 μM, [Congo red] = 2.5 μM; scale bar: 125 μm. TEXT PRINTED IN THE PICTURE: ZY-5-MT: Merged R= 0.84 | ZY-12-DT: Merged R= 0.52 | ZY-12-OMe: Merged R= 0.77 | ZY-15-OMe: Merged R= 0.77 | ZY-17-DT: Merged R= 0.77 | ZY-17-OMe: Merged R= 0.72 […]
Histological Staining of 5×FAD Mice Brain Sections
5xFAD transgenic mice brain sections were blocked with bovine serum albumin (2% BSA in PBS, pH 7.4, 10 min). Then the mice brain sections were transferred to a PBS solution of the compound and incubated for 1 h. After which, the brain sections were transferred to a PBS solution of Congo Red or antibody HJ 3.4 (Professor David Holtzman, 1 μg/ml) and incubated for another 1 h. Then, the brain sections were treated with BSA again (5 min) followed by washing with PBS (3 × 2 min), DI water (3 × 2 min). Finally, the mice brain sections were mounted with non-fluorescent mounting media, and the images were obtained by using EVOS FL Auto 2. ImageJ Fiji program was used for colocalization analysis and determination of the Pearson’s correlation coefficient. The primary

The nature of data set [2]: Alamar Blue cytotoxicity assay in N2a cells. It is filed as cell-based, mouse. The note with it: mouse, N2a (Neuro2A) neuroblastoma cells, up to 10 μM, 40 h, read-out: cell viability. On the procedure: After confirming these amphiphilic compounds can bind to Aβ species both in vitro and ex vivo, we next investigated whether these compounds could attenuate the toxicity of the Cu–Aβ species, as the Cu^2+ ions were reported to promote the formation of neurotoxic soluble Aβ42 oligomers.[45,46] Firstly, the Alamar Blue cell viability assay was used to measure the cytotoxicity of the compounds at different concentrations ranging from 20 μM to 2 μM in mouse neuroblastoma N2a cells (Fig. 8). […] Considering its high binding affinity to both Aβ fibrils and oligomers, we also further tested its ability to alleviate Cu^2+–Aβ42-induced toxicity. […] The underlying mechanism is unclear, but we propose that these compounds might perform similarly to the toxic oligomers that bind to some cell membrane receptors or insert into the membrane lipids to form porous channels.
Alamar Blue assay was chosen for the cytotoxicity studies.3 Mouse neuroblastoma Neuro2A (N2A) cells were grown with DMEM/10% FBS in a petri dish at 37 °C in a humidified atmosphere with 5% CO2. Then N2A cells were seeded in a 96-well plate (1.0 × 10^4/well). After 24 h incubation, cell media was changed to DMEM/N-2, and N2A cells were incubated for another 1 h. Then the cells were treated with different concentrations of compounds for 40 h, Alamar Blue solution (10 μL) was added, and the cells were incubated for another 90 min at 37 °C. The fluorescence intensity of each well was measured at 590 nm (excitation wavelength = 560 nm).
(§1) For the Cu2+-Aβ-induced toxicity studies, cells were treated monomeric Aβ42, Cu2+, monomeric Aβ42 + Cu2+, and monomeric Aβ42 + Cu2+ + compounds, monomeric Aβ42 + Cu2+ + copper chelators (Me2HTACN or Me3TACN), respectively. After 40 h incubation, Alamar Blue solution (10 μL) was added, and the cells were incubated for another 90 min at 37 °C. The fluorescence intensity of each well was measured at 590 nm (excitation wavelength = 560 nm). […]

Data set [3] concerns Cu2+–Aβ42 species in Neuro2A cells. In words: Cu2+-Aβ42-induced toxicity in Neuro2A cells (Alamar Blue). It counts as cell-based, mouse. The note with it: [Aβ42] = [Cu2+] = 40 μM, compound 10 μM (ZY-12-OMe 5 μM), 40 h. On the procedure: As mentioned above, compounds that are not cytotoxic at 10 μM, including ZY-12-MT, ZY-15-MT, ZY-15-OMe, ZY-17-MT, ZY-5-MT, ZY-5-DT, ZY-5-OMe, and ZY-12-OMe, were chosen for this study. Firstly, during the control studies, we observed that monomeric Aβ42 led to negligible neurotoxicity. Nevertheless, in the presence of both Cu^2+ and monomeric Aβ42, there was a significant cell death, which is likely due to the Cu^2+ associated neurotoxic Aβ42 oligomers formation.[46] […] According to the docking results, ZY-12-MT, ZY-15-OMe, ZY-15-MT, and ZY-5-OMe interact with Aβ42 tetramers mainly through residues His6, Asp7, Tyr10 (via hydrogen bonds), and Tyr10 (via π–π interactions). Some reports have also shown that His6, Asp7, and Tyr10 are potentially involved in the Cu–Aβ interactions, which explains why the compounds are able to attenuate the Cu–Aβ toxicity.[48]
Fig. 9 Cell viability results upon incubation of Neuro2A cells with monomeric Aβ42 in the presence or absence of metal ions and amphiphilic compounds. Concentrations: [Aβ42] = 40 μM, [Cu^2+] = 40 μM, [ZY-12-MT] = [ZY-15-OMe] = [ZY-15-MT] = [ZY-17-MT] = [ZY-5-OMe] = [ZY-5-MT] = [ZY-5-DT] = 10 μM, [ZY-12-OMe] = 5 μM. The error bars represent the standard deviation from five independent experiments, and the statistical analysis was evaluated according to one-way ANOVA (*p < 0.05).
Alamar Blue assay was chosen for the cytotoxicity studies.3 Mouse neuroblastoma Neuro2A (N2A) cells were grown with DMEM/10% FBS in a petri dish at 37 °C in a humidified atmosphere with 5% CO2. Then N2A cells were seeded in a 96-well plate (1.0 × 10^4/well). After 24 h incubation, cell media was changed to DMEM/N-2, and N2A cells were incubated for another 1 h. […]
as §1
10. The effect of copper chelators on Cu2+-Aβ42 neurotoxicity
Figure S8. Cell viability results upon incubation of Neuro2A cells with 10 μM copper chelators (Me2HTACN or Me3TACN) in the presence or absence of 40 μM (Aβ42 + Cu2+). The error bars represent the standard deviation from five independent experiments, and the statistical analysis was evaluated according to one-way ANOVA. […]

In the case of `COc1cc(/C=C/c2ccc(-c3ccc(C=O)cc3)s2)cc(CN2CCN(C)CCN(C)CC2)c1O` [ZY-15-OMe], the “Pearson's correlation coefficient R, colocalization with Congo Red” value (shortened to “Pearson's correlation coefficient R”) in data set [1] was found to be 0.77. In addition, in data set [2], the viability at 40 h was greater than 80%. In data set [3], the “effect on Cu2+–Aβ42-induced toxicity (cell viability, in words)” value (shortened to “effect on Cu2+–Aβ42-induced toxicity”) was “could significantly increase cell viability”. Take `CN1CCN(C)CCN(Cc2cc(-c3ccc(/C=C/c4ccc(N(C)C)cc4)s3)ccc2O)CC1` [ZY-12-MT]: the viability at 40 h in data set [2] was greater than 80%. For the same compound, the “effect on Cu2+–Aβ42-induced toxicity” value in data set [3] is on record as “could significantly increase cell viability”.

Turning to `COc1cc(OC)cc(-c2ccc(/C=C/c3cc(CN4CCN(C)CCN(C)CC4)c(O)c(OC)c3)cc2)c1` [ZY-17-OMe], in data set [1], the “Pearson's correlation coefficient R” value is reported as 0.72. On to `COc1cc(OC)cc(-c2ccc(/C=C/c3cc(CN4CCN(C)CCN(C)CC4)c(O)c(CN4CCN(C)CCN(C)CC4)c3)cc2)c1` [ZY-17-DT], for which, in data set [1], the “Pearson's correlation coefficient R” value was 0.77.

Consider `CN1CCN(C)CCN(Cc2cc(/C=C/c3ccc(-c4ccc(C=O)cc4)s3)ccc2O)CC1` [ZY-15-MT], for which, in data set [2], the viability at 40 h was greater than 80%. Also, the “effect on Cu2+–Aβ42-induced toxicity” value in data set [3] is on record as “could significantly increase cell viability”. The corresponding values for `COc1cc(/C=C/c2ccc(-c3ccc(N(C)C)cc3)s2)cc(CN2CCN(C)CCN(C)CC2)c1O` [ZY-5-OMe] are greater than 80% and “could significantly increase cell viability”.
